By inhibition is commonly meant the change of the read-out against control, counted positive when it falls. Lower therefore signals a response near the control. For orientation: IC50 means the concentration needed to halve the response being measured. Lower therefore signals greater potency in that assay. Usually Ki stands for a dissociation constant, usually derived from enzyme kinetics or from competition with a known ligand. A higher Ki goes with lower affinity.

For assay [1], the target named is T1, Dual specificity protein phosphatase 3 (Homo sapiens, UniProt P51452). In words: Tested for effect on inhibition of Dual specificity protein phosphatase 3 at a dose of 2.5 mM.
Target sequence in this assay (P51452 whole entry, looked up): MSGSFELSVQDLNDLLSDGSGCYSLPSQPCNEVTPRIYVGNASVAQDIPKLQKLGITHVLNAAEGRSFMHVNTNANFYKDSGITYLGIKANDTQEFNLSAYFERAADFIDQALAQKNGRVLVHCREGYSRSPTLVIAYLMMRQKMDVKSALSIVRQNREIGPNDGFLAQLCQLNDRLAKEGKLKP
The nature of assay [2]: Tested for effect on inhibition of protein tyrosine phosphatase 1B.
Assay [3] in a line: Tested for effect on inhibition of DSP VH1 (dual-specificity phosphatase vaccinia open reading frame H1).
Assay [4] concerns the target T1, Dual specificity protein phosphatase 3. As to the kind of experiment: Tested for effect on inhibition of Dual specificity protein phosphatase 3 and the value reported is overall equilibrium constant.
Target sequence in this assay (P51452 whole entry): as the sequence (P51452 whole entry, looked up) above
The nature of assay [5]: Tested for effect on inhibition of DSP VH1 (dual-specificity phosphatase vaccinia open reading frame H1) and the value reported is equilibrium constant.
Assay [6] is described as follows: Tested for effect on inhibition of DSP VH1 (dual-specificity phosphatase vaccinia open reading frame H1) and the value reported is overall equilibrium constant.

Consider `O=C/C=C/c1ccc(C(=O)O)cc1`, for which the inhibition in assay [1] stood at 40%. Further, the IC50 was 970 µM in assay [2] and around 1000 µM in assay [3].

For the compound `NC(=O)[C@H](CCC(=O)O)NC(=O)[C@H](CCC(=O)O)NC(=O)CNC(=O)c1ccc(/C=C/C=O)cc1`, the Ki came out at 290 µM in assay [4], 190 µM in assay [5] and 18 µM in assay [6].
